Holding throughout (assay type): in vivo, human
In experiment [1] the test system is Subjects. Nature of the experiment: DEXA body scan and multi-slice CT scan of body fat and visceral fat at baseline and 6 months (Example 2). Details: LS Mean (SE)^, Visceral Adipose Mass / Change from Baseline Mean (SD), Visceral Adipose Mass / LS Mean (SE)^, Total Body Adipose Mass / Change from Baseline Mean (SD), Total Body Adipose Mass: unit not given here. Particulars: for Change from Baseline Mean (SD), Total Body Adipose Mass: DEXA; for Change from Baseline Mean (SD), Total Body Adipose Mass / Change from Baseline Mean (SD), Visceral Adipose Mass: baseline to 6 months; for Change in Waist Circumference (cm): Table 2, titled Baseline Weight, BMI and Weight Circumference; for Change in Waist Circumference (%) vs. placebo: Table 2; for LS Mean (SE)^, Total Body Adipose Mass / LS Mean (SE)^, Visceral Adipose Mass: change from baseline; for Change from Baseline Mean (SD), Visceral Adipose Mass: multi-slice CT. The method, then:
(§1) Subjects (n=117) received one of six treatments: two placebos (P+P), placebo and naltrexone (P+Nal), bupropion and placebo (Bup+P), bupropion and naltrexone 48 mg (Bup+Nal 48), bupropion and naltrexone 32 mg (Bup+Nal 32), or bupropion and naltrexone 16 mg (Bup+Nal 16).
The mass of selective visceral loss can be calculated based on total fat and the volume of visceral fat.
(§2) The average change in visceral body mass is shown in FIG. 1 for the four treatments. […] Statistically significant improvements were also observed in several important metabolic parameters including: plasma glucose, serum insulin and plasma triglycerides.
The percentage of this decrease was similar in magnitude in both visceral and overall adipose tissue.

Experiment [2] has as its system Subjects. Description: Metabolic parameters (Example 2, Table 5). Particulars: Table 5, Metabolic Parameters. The method, then: as §1, §2
Experiment [3] concerns healthy, non-diabetic, obese subjects. Description: Double-blind, placebo-controlled multi-center trial, 24 weeks of treatment (Example 1). Particulars: for Fasting Glucose / Insulin (mcU/mL) / Triglyceride / Waist (cm) / Weight (%): obese subjects; for Weight (%): naltrexone 48 mg qd, bupropion 400 mg, or 32/400 mg combination; for Visceral fat (%): subset with DEXA and multislice CT scans. As to the method: A double-blind, placebo-controlled multi-center trial was conducted with 285 healthy, non-diabetic, obese subjects. The subjects were administered either bupropion 200 mg bid, placebo (P), naltrexone 48 mg qd (N1), or bupropion 400 mg with naltrexone 32 mg qd (BN2). 182 subjects completed 24 weeks of treatment. A subset of 60 subjects had dual energy X-ray absorptometry (DEXA) and multislice CT scans to measure body fat, lean tissue and visceral fat (American Diabetes Association Annual Meeting 2007).
The groups were matched at baseline.

As to `CC(NC(C)(C)C)C(=O)c1cccc(Cl)c1` (stereo not drawn) [Bupropion, bupropion], in the experiment with Subjects [1], the “Change from Baseline Mean (SD), Total Body Adipose Mass” value is −4.1; the “Change in Waist Circumference (cm)” value worked out at 1.9 cm; the “Change in Waist Circumference (%) vs. placebo” value is recorded as 1.8%; the “LS Mean (SE)^, Total Body Adipose Mass” value is reported as −2.6. Also, in the experiment on Subjects [1], the “LS Mean (SE)^, Visceral Adipose Mass” value came to 0.2 and the “Change from Baseline Mean (SD), Visceral Adipose Mass” value was −2.3. In addition, in the experiment on Subjects [2], the “Plasma Glucose” value came out at 3.5 ± 1.5 mg/dL, the “Serum Insulin (uU/mL)” value is recorded as −0.5 ± 1.1 uU/mL and the “Triglycerides” value is -18.4 ± 9.0 mg/dL. In addition, in experiment [3], the “Fasting Glucose” value is reported as 3.5 ± 1.5 mg/dL, the “Insulin (mcU/mL)” value is on record as −0.5 ± 1.1 mcU/mL, the “Triglyceride” value was -18.4 ± 9.0 mg/dL and the “Waist (cm)” value was −2.9 ± 6.0 cm. Besides, in experiment [3], the “Weight (%)” value is reported as −3.14 ± 0.7 % and the “Visceral fat (%)” value is −2.3 ± 5.1 %.

As to `O=C1CC[C@@]2(O)[C@H]3Cc4ccc(O)c5c4[C@@]2(CCN3CC2CC2)[C@H]1O5` [Naltrexone, naltrexone], in the experiment with Subjects [1], the “Change from Baseline Mean (SD), Total Body Adipose Mass” value is listed as −3.2; the “Change in Waist Circumference (cm)” value is listed as −1.5 cm; the “Change in Waist Circumference (%) vs. placebo” value was −1.4%; the “LS Mean (SE)^, Total Body Adipose Mass” value is on record as −1.5. Further, in the experiment on Subjects [1], the “LS Mean (SE)^, Visceral Adipose Mass” value amounted to 3.5 and the “Change from Baseline Mean (SD), Visceral Adipose Mass” value was −0.1. In the experiment with Subjects [2], the “Plasma Glucose” value was found to be 3.4 ± 1.7 mg/dL, the “Serum Insulin (uU/mL)” value turned out to be 1.7 ± 1.3 uU/mL and the “Triglycerides” value is -17.6 ± 10.4 mg/dL. In experiment [3], the “Fasting Glucose” value is listed as 3.4 ± 1.7 mg/dL, the “Insulin (mcU/mL)” value is recorded as 1.7 ± 1.3 mcU/mL, the “Triglyceride” value was -17.6 ± 10.4 mg/dL and the “Waist (cm)” value is recorded as −3.8 ± 12.7 cm. Also, in experiment [3], the “Weight (%)” value is reported as −1.74 ± 0.9 % and the “Visceral fat (%)” value is reported as −0.1 ± 8.7 %.
